From article PMC3199867, “Targeting surface nucleolin with multivalent HB-19 and related Nucant pseudopeptides results in distinct inhibitory mechanisms depending on the malignant tumor cell type” (BMC Cancer, 2011)

Key:
[1] = test system: T29; experiment: Cell growth / multiplication (viable cell number); format: cell-based, murine; conditions: for % Growth inhibition After 3 days: T29, N6 or N7 20 μM, viable cell number vs untreated control, mean of at least 2 independent experiments; for IC50: T29 cells, 0-20 μM, number of viable cells at 3 days post-treatment, read-out: Cell number: IC50 72 hours post-passage; for multiplication index of cells at day 3 compared to day 0: T29 seeded at 150,000 cells/ml, 10 μM (hexavalent), triplicate, control 17.5-fold
Description: Human breast (MDA-MB-231, MDA-MB-435 [37]), prostate (LNCaP, from American Type Culture Collection, ATCC, Rockville, MD), and cervical (HeLa) epithelial cancer cells were grown in DMEM-glutamax medium (Gibco Invitrogen, Cergy-Pontoise, France) containing GlutaMAX™, 4.5 g/l glucose and supplemented with 10% heat-inactivated (56°C for 30 min) fetal bovine serum (FBS; Hyclone, Thermo Fisher Scientific, Inc). Human SW480 cells are derived from a grade 3-4 colon carcinoma, while the highly metastatic counterpart SW620 is established from the lymph node of a person. Both SW480 and SW620 cells (obtained from Francis Raul, IRCAD) are highly tumorigenic in nude mice. They were cultured in D-MEM, 10% FCS. The murine melanoma TIII cell line was obtained from Armelle Prévost-Blondel. Murine T29 lymphoma cells, obtained from Philippe Kastner (CNRS, Strasbourg), have been established from Ik^L/L tumors from mice carrying a hypomorphic mutation (Ik^L/L) in the Ikaros gene encoding a transcription factor that regulates lymphocyte differentiation, and acts also as a tumor suppressor in T lymphocytes. The T29 cells were cultured in RPMI medium containing 25 mM Hepes pH 7.6, 1 mM sodium pyruvate, and 10% FCS. Human leukemia cell lines, Jurkat (acute T cell leukemia), HuT 78 (cutaneous T lymphocyte), RAJI (Burkitt lymphoma), and HL60 (promyelocytic leukemia) were cultured in RPMI-1640 medium (Gibco) containing GlutaMAX™, and supplemented with 10% heat-inactivated FBS as described before. The wild-type Chinese hamster ovary cell line (CHO K1) was purchased from American Type Culture Collection (ATCC; Rockville, MD). The CHO LRP1-null cell line (CHO-13-5-1) was kindly provided by D. Strickland [47]. They were cultured in Ham's F12K medium. All cells were cultured with 10% (v/v) heat inactivated (56°C, 30 min) fetal bovine serum (FBS) (Roche Molecular Biochemicals, Indianapolis, IN) and 50 international units/mL penicillin-streptomycin (Invitrogen). Cell death was monitored conveniently by uptake of the trypan blue dye due to plasma membrane permeability of dying and/or dead cells.
Figure 7 HB-19 and related multivalent Nucant pseudopeptides induce cell death associated with internucleosomal DNA fragmentation. A. Inhibition of cell multiplication by HB-19 and related multivalent Nucant pseudopeptides. […] Cell cultures (in triplicate) were monitored for viable cell number daily for 3 days. The histograms show the mean number of cells/ml ± SD of triplicate samples. The multiplication index of cells at day 3 compared to day 0 (the day of seeding) is given at the top of histogram. At 3 days post passage of T29 cells, the cell multiplication index of cells is 17.5-fold compared to 8.9-, 7.2-, 2.2-, and 1.7-fold in the presence of treatment with HB-19, N3, N6, and N7, respectively. B. N7 inhibits T29 cell multiplication in a dose dependent manner. T29 cells seeded at 100,000/ml in 2 ml in the absence (0 μM) or presence of N7 at various concentrations 2.5, 5, 10 and 20 μM were cultured for 3 days and the number of viable cells was determined at day 1, 2, and 3 post-seeding. The ordinate gives the cell number/ml (the mean of 2 samples) in each culture at day 1, 2, and 3 post-seeding. C. Partial cleavage of surface/cytoplasmic nucleolin. T29 cells were cultured for 45 min with 0 (for control; lanes C), 2 and 10 μM of N6 before preparation of cytoplasmic (that contains both surface and cytoplasmic nucleolin) and nuclear extract and analysis by immunoblotting using rabbit polyclonal antibodies that are directed against the first 26 (panel anti-Nt Ab) and the last 16 amino acids (panel anti-Ct Ab) of human nucleolin, respectively. The nuclear extracts were analyzed by immunoblotting using anti-Nt Ab (Methods). […]

[2] = test system: nucleolin; experiment: mRNA expression by RT-PCR in SW620 cells; format: cell-based, human; conditions: SW620, 10 μM, 24, 48 and 72 hours
Description: (§1) SW620 cells were cultured in the absence or presence of N7 before extraction for total RNA using RNeasy Mini Kit (Qiagen) according to the manufacturer's instructions. RT was carried out with oligo(dT) and 2-4 μg of total RNA using Superscript II Reverse Transcriptase (Invitrogen). PCR was performed in a RoboCycler 96 (Stratagene, La Jolla, CA, USA) with specific primers for human nucleolin (referred to as NCL) 5'-[…]-3' and 5'-[…]-3' (835 bp); glyceraldehyde-3-phosphate dehydrogenase (GAPDH) 5'-TGAAGG-[…]-3' and 5'-[…]-CCAC-3' (983 bp); nucleophosmin (NPM or B23) 5'-[…]-3' and 5'-[…]-3' (320 bp); matrix metalloproteinase-2 (MMP-2) 5'-[…]-3' and 5'-[…]-3' (580 bp); matrix metalloproteinase-9 (MMP-9) 5'-[…] TCAGAGC-3' and 5'-[…]-3' (243 bp); tissue inhibitor of metalloproteinase 1 (TIMP-1) 5'-[…]-3' and 5'-[…]-3' (667 bp); tissue inhibitor of metalloproteinase 2 (TIMP-2) 5'-[…]-3' and 5'-[…]-3' (405 bp). PCR amplification conditions were: 95°C for 5 min, 30 cycles at 95°C for 30 sec, 60°C for 30 sec and 72°C for 45 sec, and 72°C for 5 min (for NCL and GAPDH), 95°C for 5 min, 30 cycles at 95°C for 30 sec, 53°C for 30 sec and 72°C for 30 sec, and 72°C for 5 min (for NPM); 95°C for 5 min, 35 cycles at 95°C for 45 sec, 56°C for 45 sec and 72°C for 45 sec, and 72°C for 5 min (for MMP2 and MMP9); 95°C for 5 min, 30 cycles at 95°C for 45 sec, 59°C for 1 min and 72°C for 1 min 30 sec, and 72°C for 5 min (for TIMP1 and TIMP2).
(§2) Figure 6 Selective down regulation of MMP-9 and nucleolin transcripts in Nucant treated SW620 cells. A. SW620 cells in the absence (lanes -) and presence (lanes +) of 10 μM of N7 were cultured for 24, 48, and 72 hours. B. Dose dependent reduction of MMP-9 and nucleolin transcripts in response to Nucant treatment. Newly seeded SW620 cells were cultured in the absence (lanes 1) and presence of 2.5 (lanes 2), 5 (lanes 3) and 10 (lanes 4) […] of N6 for 20 hours. Total RNA extracts were prepared at different time points and the expression of various transcripts was analyzed by RT-PCR using specific primers (Methods). […]

[3] = test system: MMP-9; experiment: mRNA expression by RT-PCR in SW620 cells; format: cell-based, human; conditions: SW620, 10 μM, 24 hours post-seeding
Description: as §1, §2

[4] = test system: nucleophosmin; experiment: mRNA expression by RT-PCR in SW620 cells; format: cell-based, human; conditions: SW620, 10 μM, 24, 48 and 72 hours
Description: as §1, §2

Row | Substance | % Growth inhibition After 3 days [1] [%] | IC50 [1] [µM] | multiplication index of cells at day 3 compared to day 0 [1] [fold] | transcripts coding nucleolin [2] | expression of MMP-9 transcripts [3] | expression of transcripts coding nucleophosmin [4]
1 | Ac-Lys-Aib-Gly-Lys-Aib-Gly-Lys-Aib-Gly-Lys-Aib-Gly-Lys-Aib-Gly-Lys-Aib-Gly-CONH2 [Nucant N6, Presents hexavalently the pseudo-tripeptide Lysψ(CH2N)-Pro-Arg coupled to the polypeptide template containing Aib] | 85 | 8 | 2.2 | – | – | –
2 | Ac-KAKPGKAKPGKAKPG-NH2 [Nucant N7, Presents hexavalently the pseudo-tripeptide Lysψ(CH2N)-Pro-Arg coupled to a similar template as in HB-19] | 85 | 8 | 1.7 | marked down regulation | completely abolished | not affected
